According to patent publication US12539281B2 (priority 2021, dated 2026):

Columns and labels:
[1] = system: blood-brain barrier (BBB); assay: Intraarterial EA-mediated antibody delivery into normal rat brain via left internal carotid artery catheter (Experiments 15-17); format: in vivo, rats
Procedure: The experimental rat is treated with IA 3% EA+50 μg goat anti-rat IgG (H+L) ALEXA FLUOR® 647 (ab150167, Cambridge, MA USA) via the left internal carotid artery catheter. The micrograph of the whole brain section is scanned with a fluorescence microscope. Two sections from the right and left hemispheres of the brain are selected respectively and are enlarged with a magnification of 63×. The scale bar used is 50 μm. The images of the left and right hemispheres, and the enlarged sections are studied.
EA-mediated antibody (goat anti-rat IgG (H+L) ALEXA FLUOR® 647) brain entry via catheter placement through the internal carotid artery (left) are tested. The cryosection photographs and images from the confocal microscope after EA treatment are taken for studies. An EA-untreated group is used as a control group. IA antibody [50 μg goat anti-rat IgG (H+L) ALEXA FLUOR® 647] and IA 3% EA+antibody [50 μg goat anti-rat IgG (H+L) ALEXA FLUOR® 647 are the two comparison groups.
An ALEXA FLUOR® 647 anti-human IgG antibody was applied via IA catheter delivery to rule out the nonspecific binding to the experimental rats. 3% EA-mediated antibody brain entry via catheter placement through the internal carotid artery (left) is tested and compared. The cryosection photographs and images from the confocal microscope after EA treatment are taken for studies. An EA-untreated group is used as a control group. IA antibody [50 μg ALEXA FLUOR® 647 anti-human IgG antibody (ab201841); and IA 3% EA+50 μg ALEXA FLUOR® 647 anti-human IgG antibody (ab201841, Cambridge, MA USA) are the two comparison groups.

[2] = cited from earlier work
[3] = system: blood-brain barrier (BBB); details: group B: 300 μl 3% EA infused in 5 seconds, room temperature
[4] = system: syngeneic mouse glioma; details: IA ethyl alcohol+Anti-PD-1 antibody vs untreated control and IV Anti-PD-1 antibody
Procedure: Standard protocols for immunohistochemistry are followed. The primary antibody is rabbit anti-CD8 (ab4055, Abcam). Three independent experimental fields are examined, and images are analyzed and quantitated using ImageJ software of the National Institutes of Health.

[5] = system: brain tumor; details: IA ethyl alcohol + IA or IV Anti-PD-1, mice
From the text: The standard detailed protocol is followed. Primary antibodies used are FITC-conjugated Armenian hamster anti-mouse PD-1 (11-9985-82, ThermoFisher Scientific, San Diego, CA USA), and rat anti-mouse PD-1 (BE0146, Bio X Cell, West Lebanon, NH USA). The secondary antibody is ALEXA FLUOR® 647 goat anti-rabbit (ab150083, Abcam).

[6] = system: blood-brain barrier (BBB); assay: Microcatheter 3% EA-mediated delivery of Alexa Fluor 647-labeled anti-human IgG antibody, confocal imaging (Experiment 25); format: in vivo; details: 300 μL 3% EA via microcatheter then 10% labeled antibody, rats
Procedure: Following the perfusion of 300 μL of 3% EA through the intracerebral artery microcatheter, 10% Alexa Fluor® 647-labeled anti-human IgG antibody [EPR4421] (Ab307521, Abcam, UK) is slowly injected along the catheter (5-10 minutes). Two hours later, the brain tissue is perfused and removed after euthanasia. The pathological tissue sections are stained with DAPI, and confocal imaging is performed to evaluate the distribution of Alexa Fluor® 647-labeled anti-human IgG antibody in the rat brain. The experimental rats are injected with 300 μL of 0.9% NaCl without any concentration of EA as a negative control.
The blue color comes from the nuclei stained with DAPI. The pink color comes from the rabbit anti-human IgG antibody labeled with Alexa Fluor 647.

[7] = system: blood-brain barrier (BBB); assay: IA ethyl alcohol, NEO100 or mannitol mediated BBB disruption, extravasated EB dye in perfused mouse brain (Experiments 1-3); format: in vivo, mice; details: for EB dye / EB dye penetration level / Patchy, or punctate pattern of EB dye: perfused mouse brain
Procedure: The method of IA and IC injection is similar to the IV push in the clinic, which comprises essentially the steps of: • pushing the injection composition at a particular infusion flow rate immediately after the placement of the IA catheter into the internal carotid artery (ICA) or the insertion of the injection needle into the left ventricle via the ultrasound-guided intracardiac (IC) puncture at room temperature.
When performing the IA and IC injections, the infusion flow rate is about 5-7 μl/second (0.3-0.45 ml/min), the infusion volume is about […] of the body weight (at 1 μl/g, volume/weight ratio), and USP purified water or sodium chloride is used to reconstitute varied EA solutions at room temperature.
Intracardiac injection of NEO100 or EA can be carried out through the procedure of ultrasound-guided intracardiac (IC) injection. […] The mouse is anesthetized in an induction chamber using 2-3% isoflurane in 100% oxygen at a rate of 0.2-0.5 L/min. Fur over the thorax area is removed and the animal is placed in a stereotactic frame in supine position, securing the upper and lower limbs to avoid body movement. The ultrasound transducer is placed above the chest of the animal, and the injection syringe is anchored to a platform to avoid erratic needle movements. An electrocardiogram monitor is used to monitor heart function during the intracardiac injection.
EB dye is used as the non-BBB permeable substance.
Photographs of the perfused brain tissues of the experimental mice after treatment are taken.
Extravasated EB dye is used as the non-BBB permeable substance.

[8] = Comparison of the toxicity of IA NEO100 and IA EA (Experiment 21)
Procedure: The safety profile of IA 0.3% NEO100 vs. IA 0.3% EA are compared. […] There are 15 experimental mice in each testing group. The potential adverse effects are evaluated.

[9] = system: blood-brain barrier (BBB); assay: Comparison of intracardiac EA and NEO100 mediated BBB opening, EB dye (Comparative Experiment 19, Experiment 20); format: in vivo, mice; details: mice
Procedure: Intracardiac injected various concentrations of EA (at 25%, 20%, 3%, 0.3%, and 0.1%, 0.03%, 0.01%) and NEO100 (at 25%, 20%, 3%, 0.3%, and 0.1%, 0.03%, 0.01%) are used on mice to test their effects on BBB disruption and evaluated by the observation of extravasated EB dye in the brain tissues. […] Photographs of the perfused brain tissues from the experimental mice treated with […] EA and NEO100 are taken for observation and comparison.
The same procedure as experiment 19 was performed with IA 0.3% NEO100 with 2% EB dye solution.

[10] = system: blood-brain barrier (BBB); details: 300 μl 3% EA via microcatheter in left ICA, IV 2% EB at 30 min intervals, rats
From the text: Evans blue (EB) dye is used as the non-BBB permeable substance.
In this experiment, the microcatheter is placed in the left internal carotid artery (ICA). The left internal carotid artery (ICA) leads to the left hemisphere of the brain. (That is, the selected intracerebral artery is the left internal carotid artery (ICA); and the target area is the left hemisphere of the brain.)

[11] = IA injection 0.3%, 15 mice per group, number of mice

CCO [ethyl alcohol]
antibody staining (pink color) in brain, confocal ([1]; IA 3% EA+50 μg ALEXA FLUOR 647 anti-human IgG antibody, rats): even and widely spread pink color | antibody staining (pink color) in brain, confocal ([1]; IA 3% EA+50 μg goat anti-rat IgG (H+L) ALEXA FLUOR 647, rats): even and widely spread pink color | fluorescence of labeled antibody, left hemisphere vs right hemisphere ([1]; IA 3% EA+50 μg goat anti-rat IgG (H+L) ALEXA FLUOR 647 via left ICA catheter, rat): more dense fluorescence than the right hemisphere | solubility in water [2]: infinitely soluble (fully miscible) | EB (induced BBB disruption) [3]: observed | replenishment of CD8+ T lymphocytes inside the tumor [4]: significantly enhance the replenishment of CD8+ T lymphocytes | anti-PD-1 antibody brain tumor entry [5]: can mediate checkpoint inhibitor anti-PD-1 antibody brain tumor entry | penetration and spread of Alexa Fluor 647-labeled anti-human IgG antibodies in the brain [6]: significantly improve the penetration and spread | spread of EB dye inside the brain tissues ([7]; IA EA at 0.3%, 1%, and 3%, mice, superior and sagittal views): homogenized, evenly spread EB dye inside the brain tissues is observed | EB dye ([7]; IA agent at 0.1%): Observed | EB dye penetration level ([7]; IA agent at 0.1%): Widely | Patchy, or punctate pattern of EB dye ([7]; IA agent at 0.1%): Not | EB dye ([7]; IA agent at 0.3%): Observed | EB dye penetration level ([7]; IA agent at 0.3%): Widely | Patchy, or punctate pattern of EB dye ([7]; IA agent at 0.3%): Not | EB dye ([7]; IA agent at 3%): Observed | EB dye penetration level ([7]; IA agent at 3%): Widely | Patchy, or punctate pattern of EB dye ([7]; IA agent at 3%): Not | EB dye ([7]; IA agent at 5%): Observed | EB dye penetration level ([7]; IA agent at 5%): Widely | Patchy, or punctate pattern of EB dye ([7]; IA agent at 5%): Not | tested animals that experienced adverse effects ([8]; IA injection 0.3%, 15 mice per group): less than 50% | Immediate Sudden Death [8, 11]: 0 | Intermediate-lasting epilepsy post-injection leading to death [8, 11]: 0 | Long-lasting epilepsy post-injection leading death [8, 11]: 0 | Moderate-lasting epilepsy post-injection and survival to fully recovery [8, 11]: 3 | Transient, mild, or occasional epilepsy post-injection and survival to fully recovery [8, 11]: 3 | Mortality ([8]; IA injection 0.3%, 15 mice per group, listed as EA): 0% | overall mortality rate ([8]; repeated comparative experiments of IA EA and IA NEO100): less than or equal to 1% | pattern of BBB opening, coronal section ([9]; IA 0.1% EA): homogenized BBB opening | dose response of BBB disruption ([9]; intracardiac 25%, 20%, 3%, 0.3%, 0.1%, 0.03%, 0.01%): dose-reverse response | time until disrupted BBB is restored [10]: around 2 hours
